Publication PMC8445441, “Elucidating the mechanism by which synthetic helper peptides sensitize Pseudomonas aeruginosa to multiple antibiotics” (PLoS Pathogens, 2021)
Where two headings read alike, the source gives them in different places. Each block holds one compound with its values, some of them ahead of it.

Experiments:
P. aeruginosa HM-214 = details: strain HM-214; antibiotic + D-11 (MICb/MICbc 128/4)
How it was run: (§1)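 MICs were determined by CLSI broth microdilution in MHB, in triplicate: two-fold drug dilutions were mixed 1:1 with bacterial suspension of ~1 × 10^6 CFU/mL and incubated 18 h at 37 °C. The MIC was the lowest concentration with no visible growth.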

P. aeruginosa AUMC-Pa-2 = details: strain AUMC-Pa-2; antibiotic + D-11 (MICb/MICbc 64/4)
How it was run: as §1

P. aeruginosa AUMC-Pa-1 = details: strain AUMC-Pa-1; antibiotic + D-11 (MICb/MICbc 128/4)
How it was run: as §1

[1] = tested on: clinical P. aeruginosa isolates; experiment: microbe, parasite or virus in culture; details: Pseudomonas aeruginosa, 18 h, antibiotic alone
How it was run: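 Broth microdilution per CLSI in MHB, two-fold drug dilutions mixed with an equal volume of bacteria at about 1 × 10^6 CFU/mL. After 18 h at 37 °C, MIC taken as the lowest concentration with no visible growth; run in triplicate.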

P. aeruginosa NR-31040 = experiment: microbe, parasite or virus in culture; set-up: MICa: MIC of the antibiotic / MICac: MIC of the antibiotic in the combination: unit not given beside the values; details: for MIC: Pseudomonas aeruginosa, NR31040, 18 h, read-out: MICa: MIC of the antibiotic; for FICI / MICac: MIC of the antibiotic in the combination: strain NR-31040; for FICI: antibiotic + D-11 (MICb/MICbc 128/4); for MICac: MIC of the antibiotic in the combination: with D-11 at MICbc 4, unit not given
How it was run: as §1

P. aeruginosa NR-31041 = experiment: microbe, parasite or virus in culture; set-up: MICa: MIC of the antibiotic / MICac: MIC of the antibiotic in the combination: unit not given beside the values; details: for MIC: Pseudomonas aeruginosa, NR31041, 18 h, read-out: MICa: MIC of the antibiotic; for FICI / MICac: MIC of the antibiotic in the combination: strain NR-31041; for FICI: antibiotic + D-11 (MICb/MICbc 64/4); for MICac: MIC of the antibiotic in the combination: with D-11 at MICbc 4, unit not given
How it was run: as §1

P. aeruginosa PA14 = experiment: microbe, parasite or virus in culture; set-up: MICa: MIC of the antibiotic / MICac: MIC of the antibiotic in the combination: unit not given beside the values; details: for MIC: Pseudomonas aeruginosa, PA14, 18 h, read-out: MICa: MIC of the antibiotic; for FICI / MICac: MIC of the antibiotic in the combination: strain PA14; for FICI: antibiotic + D-11 (MICb/MICbc 128/4); for MICac: MIC of the antibiotic in the combination: with D-11 at MICbc 4, unit not given
How it was run: as §1

P. aeruginosa PAK = experiment: microbe, parasite or virus in culture; set-up: MICa: MIC of the antibiotic / MICac: MIC of the antibiotic in the combination: unit not given beside the values; details: for MIC: Pseudomonas aeruginosa, 18 h, read-out: MICa: MIC of the antibiotic; for FICI / MICac: MIC of the antibiotic in the combination: strain PAK; for FICI: antibiotic + D-11 (MICb/MICbc 64/4); for MICac: MIC of the antibiotic in the combination: with D-11 at MICbc 4, unit not given
How it was run: as §1

P. aeruginosa ATCC27853 = experiment: microbe, parasite or virus in culture; set-up: MICa: MIC of the antibiotic / MICac: MIC of the antibiotic in the combination: unit not given beside the values; details: for MIC: Pseudomonas aeruginosa, ATCC27853, 18 h, read-out: MICa: MIC of the antibiotic
How it was run: as §1

P. aeruginosa AUMC-Pa-3 = experiment: microbe, parasite or virus in culture; details: for MIC: Pseudomonas aeruginosa, AUMCPA3, 18 h, read-out: MICa: MIC of the antibiotic; for FICI / MICac: MIC of the antibiotic in the combination: strain AUMC-Pa-3; for FICI: antibiotic + D-11 (MICb/MICbc 128/4); for MICac: MIC of the antibiotic in the combination: with D-11 at MICbc 4, unit not given
How it was run: as §1

P. aeruginosa AUMC-Pa-4 = experiment: microbe, parasite or virus in culture; details: for MIC: Pseudomonas aeruginosa, AUMCPA4, 18 h, read-out: MICa: MIC of the antibiotic; for FICI / MICac: MIC of the antibiotic in the combination: strain AUMC-Pa-4; for FICI: antibiotic + D-11 (MICb/MICbc 128/4); for MICac: MIC of the antibiotic in the combination: with D-11 at MICbc 4, unit not given
How it was run: as §1

P. aeruginosa AUMC-Pa-5 = experiment: microbe, parasite or virus in culture; details: strain AUMC-Pa-5; for FICI: antibiotic + D-11 (MICb/MICbc 64/4); for MICa: MIC of the antibiotic: antibiotic alone; for MICa: MIC of the antibiotic / MICac: MIC of the antibiotic in the combination: unit not given; for MICac: MIC of the antibiotic in the combination: with D-11 at MICbc 4
How it was run: as §1

P. aeruginosa PAO1 = experiment: microbe, parasite or virus in culture; details: PAO1; for MIC: Pseudomonas aeruginosa, PAO1, 18 h, read-out: MICa: the MIC of antibiotics, S3 Table, antibiotic alone; for FICI / MICac: the MIC for the antibiotic in the combination: S3 Table
How it was run: as §1

P. aeruginosa AUMC-Pa-6 = experiment: microbe, parasite or virus in culture; details: strain AUMC-Pa-6; for MICa: MIC of the antibiotic: antibiotic alone; for MICa: MIC of the antibiotic / MICac: MIC of the antibiotic in the combination: unit not given; for MICac: MIC of the antibiotic in the combination: with D-11 at MICbc 4
How it was run: as §1

[2] = read-out: Antibiotic sensibility (MIC) of clinical P. aeruginosa isolate AUMC-Pa-1, strain AUMC-Pa-1
[3] = read-out: Antibiotic sensibility (MIC) of clinical P. aeruginosa isolate AUMC-Pa-2, strain AUMC-Pa-2
[4] = read-out: Antibiotic sensibility (MIC) of clinical P. aeruginosa isolate AUMC-Pa-3, strain AUMC-Pa-3
[5] = read-out: Antibiotic sensibility (MIC) of clinical P. aeruginosa isolate AUMC-Pa-4, strain AUMC-Pa-4
[6] = read-out: Antibiotic sensibility (MIC) of clinical P. aeruginosa isolate AUMC-Pa-5, strain AUMC-Pa-5
[7] = read-out: Antibiotic sensibility (MIC) of clinical P. aeruginosa isolate AUMC-Pa-6, strain AUMC-Pa-6
[8] = read-out: Antibiotic sensibility (MIC) of clinical P. aeruginosa isolate HM-214, strain HM-214
[9] = read-out: Antibiotic sensibility (MIC) of clinical P. aeruginosa isolate NR-31040, strain NR-31040
[10] = read-out: Antibiotic sensibility (MIC) of clinical P. aeruginosa isolate NR-31041, strain NR-31041

MIC [1, 2]: 32 µM
MIC [1, 3]: 16 µM
MIC [1, 4]: 16 µM
MIC [1, 5]: 16 µM
MIC [1, 6]: 32 µM
MIC [1, 7]: 32 µM
MIC [1, 8]: 16 µM
MIC [1, 9]: 16 µM
MIC [1, 10]: 32 µM
MIC (P. aeruginosa NR-31040): 16 µM
MICac: MIC of the antibiotic in the combination (P. aeruginosa NR-31040): 0.25
MIC (P. aeruginosa NR-31041): 32 µM
MICac: MIC of the antibiotic in the combination (P. aeruginosa NR-31041): 0.063
MIC (P. aeruginosa PA14): > 128 µM
MICac: MIC of the antibiotic in the combination (P. aeruginosa PA14): 2
MIC (P. aeruginosa PAK): 16 µM
MICac: MIC of the antibiotic in the combination (P. aeruginosa PAK): 0.063
MIC (P. aeruginosa ATCC27853): 16 µM
MIC (P. aeruginosa AUMC-Pa-3): 16 µM
MICac: MIC of the antibiotic in the combination (P. aeruginosa AUMC-Pa-3): 0.016
MIC (P. aeruginosa AUMC-Pa-4): 16 µM
MICac: MIC of the antibiotic in the combination (P. aeruginosa AUMC-Pa-4): 0.25
MICa: MIC of the antibiotic (P. aeruginosa AUMC-Pa-5): 32
MICac: MIC of the antibiotic in the combination (P. aeruginosa AUMC-Pa-5): 16
MIC (P. aeruginosa PAO1): 32 µM
MICac: the MIC for the antibiotic in the combination (P. aeruginosa PAO1; with 2 μM D-11): 0.0625 µM
MICac: the MIC for the antibiotic in the combination (P. aeruginosa PAO1; with 4 μM D-11): 0.01562 µM
MICa: MIC of the antibiotic (P. aeruginosa AUMC-Pa-6): 32
MICac: MIC of the antibiotic in the combination (P. aeruginosa AUMC-Pa-6): 2
Compound: CO[C@H]1/C=C/O[C@@]2(C)Oc3c(C)c(O)c4c(O)c(c(/C=N/N5CCN(C)CC5)c(O)c4c3C2=O)NC(=O)/C(C)=C\C=C\[C@H](C)[C@H](O)[C@@H](C)[C@@H](O)[C@@H](C)[C@H](OC(C)=O)[C@@H]1C [Rifampicin]
FICI (P. aeruginosa HM-214): 0.047
FICI (P. aeruginosa AUMC-Pa-2): 0.064
FICI (P. aeruginosa AUMC-Pa-1): 0.032
FICI (P. aeruginosa NR-31040): 0.063
FICI (P. aeruginosa NR-31041): 0.064
FICI (P. aeruginosa PA14): 0.039
FICI (P. aeruginosa PAK): 0.066
FICI (P. aeruginosa AUMC-Pa-3): 0.032
FICI (P. aeruginosa AUMC-Pa-4): 0.047
FICI (P. aeruginosa AUMC-Pa-5): 0.563
FICI (P. aeruginosa PAO1; antibiotic + 2 μM D-11): 0.064

MIC [1, 2]: 16 µM
MIC [1, 3]: 8 µM
MIC [1, 4]: 8 µM
MIC [1, 5]: 16 µM
MIC [1, 6]: 32 µM
MIC [1, 7]: 16 µM
MIC [1, 8]: 8 µM
MIC [1, 9]: 8 µM
MIC [1, 10]: 16 µM
MIC (P. aeruginosa NR-31040): 8 µM
MICac: MIC of the antibiotic in the combination (P. aeruginosa NR-31040): 0.5
MIC (P. aeruginosa NR-31041): 16 µM
MICac: MIC of the antibiotic in the combination (P. aeruginosa NR-31041): 0.063
MIC (P. aeruginosa PA14): > 128 µM
MICac: MIC of the antibiotic in the combination (P. aeruginosa PA14): 8
MIC (P. aeruginosa PAK): 16 µM
MICac: MIC of the antibiotic in the combination (P. aeruginosa PAK): 0.125
MIC (P. aeruginosa ATCC27853): 32 µM
MICac: MIC of the antibiotic in the combination (P. aeruginosa ATCC27853; strain ATCC27853, with D-11 at MICbc 4, unit not given): 0.031
MIC (P. aeruginosa AUMC-Pa-3): 8 µM
MICac: MIC of the antibiotic in the combination (P. aeruginosa AUMC-Pa-3): 0.031
MIC (P. aeruginosa AUMC-Pa-4): 16 µM
MICac: MIC of the antibiotic in the combination (P. aeruginosa AUMC-Pa-4): 0.5
MICa: MIC of the antibiotic (P. aeruginosa AUMC-Pa-5): 32
MICac: MIC of the antibiotic in the combination (P. aeruginosa AUMC-Pa-5): 16
MIC (P. aeruginosa PAO1): 32 µM
MICac: the MIC for the antibiotic in the combination (P. aeruginosa PAO1; with 2 μM D-11): 0.125 µM
MICac: the MIC for the antibiotic in the combination (P. aeruginosa PAO1; with 4 μM D-11): 0.03125 µM
MICa: MIC of the antibiotic (P. aeruginosa AUMC-Pa-6): 16
MICac: MIC of the antibiotic in the combination (P. aeruginosa AUMC-Pa-6): 2
Compound: CO[C@H]1/C=C/O[C@@]2(C)Oc3c(C)c(O)c4c(O)c(c(/C=N/N5CCN(C6CCCC6)CC5)c(O)c4c3C2=O)NC(=O)/C(C)=C\C=C\[C@H](C)[C@H](O)[C@@H](C)[C@@H](O)[C@@H](C)[C@H](OC(C)=O)[C@@H]1C [Rifapentine]
FICI (P. aeruginosa HM-214): 0.063
FICI (P. aeruginosa AUMC-Pa-2): 0.066
FICI (P. aeruginosa AUMC-Pa-1): 0.035
FICI (P. aeruginosa NR-31040): 0.094
FICI (P. aeruginosa NR-31041): 0.066
FICI (P. aeruginosa PA14): 0.063
FICI (P. aeruginosa PAK): 0.070
FICI (P. aeruginosa ATCC27853; strain ATCC27853, antibiotic + D-11 (MICb/MICbc 32/4)): 0.133
FICI (P. aeruginosa AUMC-Pa-3): 0.035
FICI (P. aeruginosa AUMC-Pa-4): 0.063
FICI (P. aeruginosa AUMC-Pa-5): 0.563
FICI (P. aeruginosa PAO1; antibiotic + 2 μM D-11): 0.066
FICI (P. aeruginosa PAO1; antibiotic + 4 μM D-11): 0.126
FICI (P. aeruginosa AUMC-Pa-6; antibiotic + D-11 (MICb/MICbc 64/4)): 0.188
